{"source": "patent US5827838A", "about": "“Method for the treatment of diseases related with protein isoprenylation” (priority 1994, dated 1998)", "key": {"[1]": {"molecular_target": "T1, protein;farnesyl transferase (Oryctolagus cuniculus, UniProt G1SFC8+G1T7D9)", "assay": "Inhibition of protein;farnesyl transferase using C-terminal octapeptide pre-p21N-ras coupled to Sepharose beads as substrate", "type": "biochemical, rabbit", "parameters": "substrate N-ras C-terminal octapeptide on Sepharose beads"}, "squalene synthase": {"molecular_target": "T2, squalene synthase (Rattus norvegicus, UniProt Q02769)", "T2 construct": "squalene synthase in rat liver microsomal preparations; from tissue; host or cells: rat liver microsomes", "T2 sequence (Q02769 1-416)": "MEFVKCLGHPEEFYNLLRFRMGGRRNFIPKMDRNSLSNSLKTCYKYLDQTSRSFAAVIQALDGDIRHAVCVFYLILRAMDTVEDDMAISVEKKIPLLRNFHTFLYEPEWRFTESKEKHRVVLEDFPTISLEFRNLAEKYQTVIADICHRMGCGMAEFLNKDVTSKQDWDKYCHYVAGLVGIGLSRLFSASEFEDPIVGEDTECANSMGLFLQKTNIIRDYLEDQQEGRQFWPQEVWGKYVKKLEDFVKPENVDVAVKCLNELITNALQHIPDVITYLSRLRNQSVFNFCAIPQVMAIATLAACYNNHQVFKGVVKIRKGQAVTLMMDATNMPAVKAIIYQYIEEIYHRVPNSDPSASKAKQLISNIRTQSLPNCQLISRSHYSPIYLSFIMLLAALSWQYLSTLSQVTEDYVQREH", "assay": "Inhibition of squalene synthase in rat liver microsomal preparations", "type": "biochemical", "details": "at dosage amounts inhibiting p21ras farnesyl transferase"}, "[2]": {"system": "farnesylation of p21ras in Rat-1.H-ras13 cells", "type": "cell-based, rat cells overexpressing human p21Ha-ras", "details": "24 h", "procedure": "It was shown now that compound 3 acts as a protein: farnesyl transferase inhibitors in cultured cells. For this purpose Rat-1.H-ras13 cells, which overexpress human p21^Ha-ras (Downword J. et al., Proc. Natl. Acad. Sci. U.S.A. 1988; 85; 5774-5778), were used. These cells were incubated with [^3 H]-mevalonate and 0, 0.1, 1, 10 and 100 μM of compound 3 for 24 h in DMEM containing 1% human serum albumin and 2.5 μM of simvastatin.\nThereafter cells were lysed in 300 μl PBS supplemented with 1% Triton X-100, 0.5% sodium deoxycholate, and the protease inhibitors phenylmethylsulfonylfluoride (1 mM), leupeptine (50 μg/ml), pepstatin A (50 μg/ml) and trasylol (300 K.I.U./ml), and p21^ras was collected on immobilized monoclonal antibody Y13-259 (Osterop A.P.R.M. et al., J. Biol. Chem. 1992; 267; 14647-14653). After separation by SDS polyacrylamide gel electrophoresis the [^3 H]-labelled polypeptides were visualized by autoradiography."}, "Rat-1.H-ras13 cells": {"system": "Rat-1.H-ras13 cells", "assay": "Inhibition of cell proliferation of transformed Rat-1.H-ras13 cells (cell count, trypan blue exclusion)", "type": "cell-based", "details": "10 days", "procedure": "Cells were cultured for 10 days in DMEM supplemented with 10% fetal calf serum in the presence of 0, 25 or 100 μM of compound 3. At day 0, cells were plated in monolayer culture at 5×10^3 cells per well (6 well plates). On day 3 and 7, cells were re-fed with the same medium. On day 10, cells were harvested by trypsinization and counted using a standard hemocytometer chamber. Values are the mean of triplicate countings of duplicate incubations. In these ten days control cells had been proliferated exponentially to 1.94×10^6 ±0.04×10^6 cells per well."}, "[3]": {"molecular_target": "T1, protein;farnesyl transferase", "assay": "Inhibition of farnesylation of H-ras protein (p21ras precursor) by farnesyl:protein transferase in rabbit reticulocyte lysate, [3H]-FPP incorporation", "details": "different amounts of compound"}, "[4]": {"details": "read-out: IC50, inhibition of protein;farnesyl transferase; octapeptide pre-p21N-ras on Sepharose beads as substrate"}}, "note": "Read-outs that look alike come from different tables or passages of the source.", "data": [{"smiles": "CC(C)=CCCC(C)=CCCC(C)=CCC(OCP(=O)(O)O)P(=O)(O)O", "note": "(stereo not shown) [compound 6, farnesyl(phosphono)methoxymethylphosphonic acid]", "values": [{"measurement": "IC50", "setting": "[1]; read-out: IC50, inhibition of protein;farnesyl transferase; octapeptide pre-p21N-ras on Sepharose beads as substrate; unit μm [sic]", "result": "580 ± 440", "unit": "nM"}]}, {"smiles": "CC(C)=CCCC(C)=CCCC(C)=CCP(=O)(O)OP(=O)(O)O", "note": "[compound 3, farnesylphosphonophosphate]", "values": [{"measurement": "inhibition of squalene synthesis at amounts that inhibit p21ras farnesyl transferase, result in words", "setting": "squalene synthase", "result": "without inhibiting squalene synthesis"}, {"measurement": "radioactivity measured in p21ras / farnesylation of ras protein, result in words", "setting": "[2]; 100 μM", "result": "no radioactivity was measured, showing that the farnesylation of the ras protein was totally blocked"}, {"measurement": "IC50", "setting": "[2]; DMEM with 1% human serum albumin and 2.5 μM simvastatin, read-out: IC50, inhibition of farnesylation of p21ras in cells", "result": "1000 to 10000", "unit": "nM"}, {"measurement": "radioactivity incorporated into p21ras, result in words", "setting": "[2]; increasing concentrations (0.1, 1, 10, 100 μM)", "result": "less radioactivity was incorporated into p21^ras"}, {"measurement": "non-viable cells, trypan blue exclusion", "setting": "Rat-1.H-ras13 cells; 0, 25 or 100 μM", "result": "no non-viable cells"}, {"measurement": "inhibition of proliferation of transformed cells, result in words", "setting": "Rat-1.H-ras13 cells; 25 and 100 μM", "result": "concentration-dependently inhibits the proliferation of transformed cells in culture"}, {"measurement": "inhibition at 25 µM", "setting": "Rat-1.H-ras13 cells; Rattus norvegicus, 240 h, 25 μM, read-out: reduction in cell numbers (of control values)", "result": 32.5, "unit": "%"}, {"measurement": "inhibition at 100 µM", "setting": "Rat-1.H-ras13 cells; Rattus norvegicus, 240 h, 100 μM, read-out: reduction in cell numbers (of control values)", "result": 49.5, "unit": "%"}, {"measurement": "IC50", "setting": "[1]; [4]", "result": "340 ± 50", "unit": "nM"}, {"measurement": "enzyme activity (farnesyl:protein transferase), result in words", "setting": "[3]", "result": "concentration-dependently decreased"}]}, {"smiles": "CC(C)=CCCC(C)=CCCC(C)=CCCP(=O)(O)OP(=O)(O)O", "note": "[compound 1, farnesylmethylphosphonophosphate]", "values": [{"measurement": "inhibition of squalene synthesis at amounts that inhibit p21ras farnesyl transferase, result in words", "setting": "squalene synthase", "result": "without inhibiting squalene synthesis"}, {"measurement": "IC50", "setting": "[1]; [4]", "result": "930 ± 230", "unit": "nM"}, {"measurement": "enzyme activity (farnesyl:protein transferase), result in words", "setting": "[3]", "result": "concentration-dependently decreased"}]}, {"smiles": "CC(C)=CCCC(C)=CCCC(C)=CCOCP(=O)(O)OP(=O)(O)O", "note": "[compound 5, farnesyloxymethylphosphono-phosphate]", "values": [{"measurement": "IC50", "setting": "[1]; [4]", "result": "520 ± 70", "unit": "nM"}]}, {"smiles": "CC(C)=CCCC(C)=CCCC(C)=CCC(CC=C(C)CCC=C(C)CCC=C(C)C)(P(=O)(O)O)P(=O)(O)O", "note": "[bisfarnesylmethylenebis(phosphonic acid), reference compound]", "values": [{"measurement": "IC50", "setting": "[1]; octapeptide pre-p21N-ras on Sepharose beads as substrate; read-out: IC50, inhibition of protein;farnesyl transferase", "result": "147000 ± 37000", "unit": "nM"}]}]}
